Source: patent publication US20250326748A1, “COMPOUNDS AND METHODS FOR MODULATING SPLICING” (REMIX THERAPEUTICS INC., priority 2022, published 2025)
Structures can show the parent of a compound that is named as a salt.

Tests used:
Target C = assay: HiBiT protein abundance assay, Target C (K562 HiBiT knock-in); type: cell-based, human; details: HiBiT knock-in cells, 24 hours
Method in brief: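 K562 HiBiT knock-in cells (10000/well) in IMDM + 1% FBS were treated for 24 h at 37° C. with a 10-point 3-fold dilution series (top 10 μM final), with DMSO ≤0.25%. Unmodified K562 served as baseline. HiBiT lytic luminescence was normalized to controls, and IC50 was interpolated at 50% from a four-parameter fit.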

K562 cells = assay: Cell viability, Cell Titer Glo 2.0 assay, K562; details: 72 hours
HiBiT-tagged HTT protein = assay: HiBiT protein abundance assay, HTT (K562 HiBiT knock-in); type: cell-based, human; details: HiBiT knock-in cells, 24 hours
Method in brief: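 Endogenously HiBiT-tagged K562 knock-in lines treated 24 h at 37 °C with 10-point 3-fold dilutions (top 10 μM final, DMSO ≤0.25%) in IMDM+1% FBS. Lytic Nano-Glo luminescence normalized to DMSO and unmodified K562 controls; four-parameter fit gives 50%-abundance concentration (IC50).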

Target C mRNA = assay: Splicing RT-qPCR panel, Target C canonical junction (CJ) mRNA; type: cell-based, human; details: Homo sapiens, read-out: Target C CJ (decrease in CJ mRNA levels, IC50)
Method in brief: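 A673 cells (DMEM, 10% FBS) or K562 cells (IMDM, 10% FBS) treated 24 h at 37 °C with an 11-point 3-fold dilution, top 10 uM, DMSO ≤0.25%. Canonical-junction mRNA quantified in lysates by RT-qPCR, normalised to GAPDH, GUSB or PPIA and to DMSO (2^−ΔΔCt), then converted to % response.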

Cc1c(O)c(-c2ccc3c(Cl)c(N4CCNCC4)cnc3n2)cc2cn(C)nc12 [Compound 278, 5-[5-chloro-6-(piperazin-1-yl)-1,8-naphthyridin-2-yl]-2,7-dimethylindazol-6-ol]
IC50 (Target C): 1 to 10 µM | Effect on Cell Viability, K562 (K562 cells): A (<100 nM) | IC50 (HiBiT-tagged HTT protein): 0.1 to 1 µM | IC50 (Target C mRNA): 1 to 10 µM

C[C@@H]1CN(c2cnc3nc(-c4cc5cn(C)nc5c(F)c4O)cc(Cl)c3c2)C[C@H](C)N1 [Compound 279]
IC50 (Target C): 0.1 to 1 µM | Effect on Cell Viability, K562 (K562 cells): A (<100 nM) | IC50 (HiBiT-tagged HTT protein): 0.1 to 1 µM | IC50 (Target C mRNA): 1 to 10 µM

C[C@H]1CN(c2cnc3nc(-c4cc5cn(C)nc5c(F)c4O)cc(Cl)c3c2)C[C@H](C)N1 [Compound 280]
IC50 (Target C): < 0.1 µM | Effect on Cell Viability, K562 (K562 cells): A (<100 nM) | IC50 (HiBiT-tagged HTT protein): < 0.1 µM | IC50 (Target C mRNA): < 0.1 µM

C[C@@H]1CN(c2cnc3nc(-c4cc5cn(C)nc5c(F)c4O)cc(Cl)c3c2)C[C@@H](C)N1 [Compound 281]
IC50 (Target C): 0.1 to 1 µM | Effect on Cell Viability, K562 (K562 cells): A (<100 nM) | IC50 (HiBiT-tagged HTT protein): < 0.1 µM | IC50 (Target C mRNA): 0.1 to 1 µM

Cn1cc2cc(-c3ccc4cc(NC5CCNCC5)cnc4n3)c(O)c(F)c2n1 [Compound 285]
IC50 (Target C): 1 to 10 µM | Effect on Cell Viability, K562 (K562 cells): B (100-1000 nM) | IC50 (HiBiT-tagged HTT protein): 0.1 to 1 µM | IC50 (Target C mRNA): 1 to 10 µM

CN[C@@H]1CCN(c2cnc3nc(-c4cc5cn(C)nc5c(C)c4O)cc(Cl)c3c2)C1 [Compound 286, 5-{4-chloro-6-[(3R)-3-(methylamino)pyrrolidin-1-yl]-1,8-naphthyridin-2-yl}-2,7-dimethylindazol-6-ol hydrochloride]
IC50 (Target C): < 0.1 µM | Effect on Cell Viability, K562 (K562 cells): A (<100 nM) | IC50 (HiBiT-tagged HTT protein): < 0.1 µM | IC50 (Target C mRNA): < 0.1 µM

CN[C@H]1CCN(c2cnc3nc(-c4cc5cn(C)nc5c(C)c4O)cc(Cl)c3c2)C1.Cl [Compound 287]
IC50 (Target C): 0.1 to 1 µM | Effect on Cell Viability, K562 (K562 cells): A (<100 nM) | IC50 (HiBiT-tagged HTT protein): < 0.1 µM | IC50 (Target C mRNA): 0.1 to 1 µM

C[C@H]1CN(c2cnc3nc(-c4cc(F)c5nn(C)cc5c4)cc(Cl)c3c2)C[C@@H](C2CC2)N1 [Compound 288]
IC50 (Target C): 1 to 10 µM | Effect on Cell Viability, K562 (K562 cells): B (100-1000 nM) | IC50 (HiBiT-tagged HTT protein): 1 to 10 µM | IC50 (Target C mRNA): 1 to 10 µM

Cc1c(O)c(-c2cc(Cl)c3cc(N(C)[C@@H]4CCNC4)cnc3n2)cc2cn(C)nc12.Cl [Compound 293]
IC50 (Target C): 1 to 10 µM | Effect on Cell Viability, K562 (K562 cells): B (100-1000 nM) | IC50 (HiBiT-tagged HTT protein): 0.1 to 1 µM | IC50 (Target C mRNA): 1 to 10 µM

Cc1c(O)c(-c2cc(Cl)c3cc(N(C)[C@H]4CCNC4)cnc3n2)cc2cn(C)nc12 [Compound 294]
IC50 (Target C): 1 to 10 µM | Effect on Cell Viability, K562 (K562 cells): B (100-1000 nM) | IC50 (HiBiT-tagged HTT protein): 0.1 to 1 µM | IC50 (Target C mRNA): 1 to 10 µM

C[C@@H]1CN(c2cnc3nc(-c4cc(F)c5nn(C)cc5c4)cc(Cl)c3c2)CCN1 [Compound 295, 4-chloro-2-(7-fluoro-2-methylindazol-5-yl)-6-[(3R)-3-methylpiperazin-1-yl]-1,8-naphthyridine]
IC50 (Target C): 0.1 to 1 µM | Effect on Cell Viability, K562 (K562 cells): B (100-1000 nM) | IC50 (HiBiT-tagged HTT protein): 0.1 to 1 µM | IC50 (Target C mRNA): 1 to 10 µM

C[C@H]1CN(c2cnc3nc(-c4cc(F)c5nn(C)cc5c4)cc(Cl)c3c2)CCN1 [Compound 296]
IC50 (Target C): 0.1 to 1 µM | Effect on Cell Viability, K562 (K562 cells): A (<100 nM) | IC50 (HiBiT-tagged HTT protein): 0.1 to 1 µM | IC50 (Target C mRNA): 1 to 10 µM

Cc1cn2cc(-c3cc(Cl)c4cc(N5C[C@@H](C)N[C@@H](C)C5)cnc4n3)cc(F)c2n1 [Compound 297]
IC50 (Target C): 1 to 10 µM | Effect on Cell Viability, K562 (K562 cells): B (100-1000 nM) | IC50 (HiBiT-tagged HTT protein): 0.1 to 1 µM | IC50 (Target C mRNA): > 10 µM

Cc1cn2cc(-c3cc(Cl)c4cc(N5C[C@H](C)N[C@@H](C)C5)cnc4n3)cc(F)c2n1 [Compound 298]
IC50 (Target C): 1 to 10 µM | Effect on Cell Viability, K562 (K562 cells): B (100-1000 nM) | IC50 (HiBiT-tagged HTT protein): 0.1 to 1 µM | IC50 (Target C mRNA): 1 to 10 µM

Cc1c(O)c(-c2ccc3c(C(F)(F)F)c(N4CCNCC4)cnc3n2)cc2cn(C)nc12 [Compound 302, 2,7-dimethyl-5-[6-(piperazin-1-yl)-5-(trifluoromethyl)-1,8-naphthyridin-2-yl]indazol-6-ol]
IC50 (Target C): 1 to 10 µM | Effect on Cell Viability, K562 (K562 cells): B (100-1000 nM) | IC50 (HiBiT-tagged HTT protein): 1 to 10 µM | IC50 (Target C mRNA): > 10 µM

CN1CCC[C@@H]2CN(c3cnc4nc(-c5cc6cn(C)nc6c(F)c5O)cc(Cl)c4c3)C[C@@H]21 [Compound 303]
IC50 (Target C): 1 to 10 µM | Effect on Cell Viability, K562 (K562 cells): B (100-1000 nM) | IC50 (HiBiT-tagged HTT protein): 0.1 to 1 µM | IC50 (Target C mRNA): > 10 µM

CN1CCC[C@H]2CN(c3cnc4nc(-c5cc6cn(C)nc6c(F)c5O)cc(Cl)c4c3)C[C@H]21 [Compound 304]
IC50 (Target C): > 10 µM | Effect on Cell Viability, K562 (K562 cells): B (100-1000 nM) | IC50 (HiBiT-tagged HTT protein): 1 to 10 µM | IC50 (Target C mRNA): > 10 µM

C[C@@H]1CN(c2cnc3nc(-c4cc5cn(C)nc5c(F)c4O)cc(C4CC4)c3c2)C[C@H](C)N1 [Compound 305, 5-{4-cyclopropyl-6-[(3R,5S)-3,5-dimethylpiperazin-1-yl]-1,8-naphthyridin-2-yl}-7-fluoro-2-methylindazol-6-ol]
IC50 (Target C): 1 to 10 µM | Effect on Cell Viability, K562 (K562 cells): C (1000-9999 nM) | IC50 (HiBiT-tagged HTT protein): 1 to 10 µM | IC50 (Target C mRNA): > 10 µM

CCN[C@@H]1CCN(c2cnc3nc(-c4cc5cn(C)nc5cc4O)ccc3c2)C1 [Compound 310, 5-{6-[(3R)-3-(ethylamino)468pyrrolidine-1-yl]-1,8-naphthyridin-2-yl}-2-methylindazol-6-ol hydrochloride]
IC50 (Target C): 0.1 to 1 µM | Effect on Cell Viability, K562 (K562 cells): B (100-1000 nM) | IC50 (HiBiT-tagged HTT protein): 0.1 to 1 µM | IC50 (Target C mRNA): 0.1 to 1 µM

CCN[C@H]1CCN(c2cnc3nc(-c4cc5cn(C)nc5cc4O)ccc3c2)C1 [Compound 311, 5-{6-[(3S)-3-(ethylamino)pyrrolidin-1-yl]-1,8-naphthyridin-2-yl}-2-methylindazol-6-ol hydrochloride]
IC50 (Target C): 0.1 to 1 µM | Effect on Cell Viability, K562 (K562 cells): B (100-1000 nM) | IC50 (HiBiT-tagged HTT protein): 0.1 to 1 µM | IC50 (Target C mRNA): 1 to 10 µM

Cn1cc2cc(-c3ccc4cc(N5CC[C@@H](NCC6CC6)C5)cnc4n3)c(O)cc2n1 [Compound 313]
IC50 (Target C): 0.1 to 1 µM | Effect on Cell Viability, K562 (K562 cells): B (100-1000 nM) | IC50 (HiBiT-tagged HTT protein): 0.1 to 1 µM | IC50 (Target C mRNA): 0.1 to 1 µM

Cn1cc2cc(-c3ccc4cc(N5CC[C@H](NCC6CC6)C5)cnc4n3)c(O)cc2n1 [Compound 314]
IC50 (Target C): 0.1 to 1 µM | Effect on Cell Viability, K562 (K562 cells): B (100-1000 nM) | IC50 (HiBiT-tagged HTT protein): 0.1 to 1 µM | IC50 (Target C mRNA): 1 to 10 µM

CN(C)C1CCN(c2cnc3nc(-c4cc5cn(C)nc5cc4O)ccc3c2)CC1 [Compound 316]
IC50 (Target C): 1 to 10 µM | Effect on Cell Viability, K562 (K562 cells): B (100-1000 nM) | IC50 (HiBiT-tagged HTT protein): 1 to 10 µM | IC50 (Target C mRNA): 1 to 10 µM

CCN[C@@H]1CCN(c2cnc3nc(-c4cc5cn(C)nc5cc4O)cc(Cl)c3c2)C1 [Compound 317]
IC50 (Target C): < 0.1 µM | Effect on Cell Viability, K562 (K562 cells): A (<100 nM) | IC50 (HiBiT-tagged HTT protein): < 0.1 µM | IC50 (Target C mRNA): < 0.1 µM

CCN[C@H]1CCN(c2cnc3nc(-c4cc5cn(C)nc5cc4O)cc(Cl)c3c2)C1 [Compound 318]
IC50 (Target C): 0.1 to 1 µM | Effect on Cell Viability, K562 (K562 cells): A (<100 nM) | IC50 (HiBiT-tagged HTT protein): 0.1 to 1 µM | IC50 (Target C mRNA): 1 to 10 µM

C[C@@H]1CN(c2cnc3nc(-c4ccc5nn(C)cc5c4)cc(Cl)c3c2)C[C@H](C)N1 [Compound 320, 4-chloro-6-[(3R,5S)-3,5-dimethylpiperazin-1-yl]-2-(2-methylindazol-5-yl)-1,8-naphthyridine]
IC50 (Target C): > 10 µM | Effect on Cell Viability, K562 (K562 cells): C (1000-9999 nM) | IC50 (HiBiT-tagged HTT protein): 1 to 10 µM | IC50 (Target C mRNA): > 10 µM

C[C@@H]1CN(c2cnc3nc(-c4cc(C#N)c5nn(C)cc5c4)cc(Cl)c3c2)C[C@H](C)N1 [Compound 325, 5-(4-chloro-6-((3R,5S)-3,5-dimethylpiperazin-1-yl)-1,8-naphthyridin-2-yl)-2-methyl-2H-indazole-7-carbonitrile 2,2,2-trifluoroacetate]
IC50 (Target C): > 10 µM | Effect on Cell Viability, K562 (K562 cells): C (1000-9999 nM) | IC50 (HiBiT-tagged HTT protein): 1 to 10 µM | IC50 (Target C mRNA): > 10 µM
